# Results taken from PubChem BioAssay (NCI).
#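 Dose response: 5 concentrations. Exposure: 48 h. Format: 96-well plates. Endpoint: linear interpolation; highest concentration if not reached. The concentration for full growth arrest is given as TGI.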
# Columns and labels:
# Assay in all cases: NCI-60 cell line screen, 48 h
# 786-0 renal = tested on: 786-0 renal
# A498 renal = tested on: A498 renal
# A549 NSCLC = tested on: A549 NSCLC
# ACHN renal = tested on: ACHN renal
# BT-549 breast = tested on: BT-549 breast
# CAKI-1 renal = tested on: CAKI-1 renal
# CCRF-CEM leukemia = tested on: CCRF-CEM leukemia
# COLO 205 colon = tested on: COLO 205 colon
# DU-145 prostate = tested on: DU-145 prostate
# EKVX NSCLC = tested on: EKVX NSCLC
# HCC-2998 colon = tested on: HCC-2998 colon
# HCT-116 colon = tested on: HCT-116 colon
# HCT-15 colon = tested on: HCT-15 colon
# HL-60(TB) leukemia = tested on: HL-60(TB) leukemia
# HOP-62 NSCLC = tested on: HOP-62 NSCLC
# HOP-92 NSCLC = tested on: HOP-92 NSCLC
# HS 578T breast = tested on: HS 578T breast
# HT29 colon = tested on: HT29 colon
# IGROV1 ovarian = tested on: IGROV1 ovarian
# K-562 leukemia = tested on: K-562 leukemia
# KM12 colon = tested on: KM12 colon
# LOX IMVI melanoma = tested on: LOX IMVI melanoma
# M14 melanoma = tested on: M14 melanoma
# MALME-3M melanoma = tested on: MALME-3M melanoma
# MCF7 breast = tested on: MCF7 breast
# MDA-MB-231 breast = tested on: MDA-MB-231 breast
# MDA-MB-435 = tested on: MDA-MB-435
# MDA-N = tested on: MDA-N
# MOLT-4 leukemia = tested on: MOLT-4 leukemia
# NCI-H226 lung = tested on: NCI-H226 lung
# NCI-H23 lung = tested on: NCI-H23 lung
# NCI-H460 lung = tested on: NCI-H460 lung
# NCI-H522 lung = tested on: NCI-H522 lung
# NCI/ADR-RES ovarian = tested on: NCI/ADR-RES ovarian
# OVCAR-3 ovarian = tested on: OVCAR-3 ovarian
# OVCAR-4 ovarian = tested on: OVCAR-4 ovarian
# OVCAR-5 ovarian = tested on: OVCAR-5 ovarian
# OVCAR-8 ovarian = tested on: OVCAR-8 ovarian
# PC-3 prostate = tested on: PC-3 prostate
# RPMI-8226 leukemia = tested on: RPMI-8226 leukemia
# RXF 393 renal = tested on: RXF 393 renal
# SF-268 CNS = tested on: SF-268 CNS
# SF-295 CNS = tested on: SF-295 CNS
# SF-539 CNS = tested on: SF-539 CNS
# SK-MEL-2 melanoma = tested on: SK-MEL-2 melanoma
# SK-MEL-28 melanoma = tested on: SK-MEL-28 melanoma
# SK-MEL-5 melanoma = tested on: SK-MEL-5 melanoma
# SK-OV-3 ovarian = tested on: SK-OV-3 ovarian
# SN12C renal = tested on: SN12C renal
# SNB-19 CNS = tested on: SNB-19 CNS
# SNB-75 CNS = tested on: SNB-75 CNS
# SR leukemia = tested on: SR leukemia
# SW-620 colon = tested on: SW-620 colon
# T-47D breast = tested on: T-47D breast
# TK-10 renal = tested on: TK-10 renal
# U251 CNS = tested on: U251 CNS
# UACC-257 melanoma = tested on: UACC-257 melanoma
# UACC-62 melanoma = tested on: UACC-62 melanoma
# UO-31 renal = tested on: UO-31 renal
structure (smiles),measurement,setting,value
N#Cc1c2c(c(Nc3ccc(F)cc3)n3c1nc1ccccc13)CCCC2,TGI,786-0 renal,> 100 µM
same,TGI,A498 renal,> 100 µM
same,TGI,A549 NSCLC,> 100 µM
same,TGI,ACHN renal,> 100 µM
same,TGI,BT-549 breast,> 100 µM
same,TGI,CAKI-1 renal,> 100 µM
same,TGI,CCRF-CEM leukemia,> 100 µM
same,TGI,COLO 205 colon,> 100 µM
same,TGI,DU-145 prostate,> 100 µM
same,TGI,EKVX NSCLC,> 100 µM
same,TGI,HCC-2998 colon,> 100 µM
same,TGI,HCT-116 colon,> 100 µM
same,TGI,HCT-15 colon,> 100 µM
same,TGI,HL-60(TB) leukemia,> 100 µM
same,TGI,HOP-62 NSCLC,> 100 µM
same,TGI,HOP-92 NSCLC,> 100 µM
same,TGI,HS 578T breast,> 100 µM
same,TGI,HT29 colon,> 100 µM
same,TGI,IGROV1 ovarian,> 100 µM
same,TGI,K-562 leukemia,> 100 µM
same,TGI,KM12 colon,> 100 µM
same,TGI,LOX IMVI melanoma,> 100 µM
same,TGI,M14 melanoma,> 100 µM
same,TGI,MALME-3M melanoma,> 100 µM
same,TGI,MCF7 breast,> 100 µM
same,TGI,MDA-MB-231 breast,> 100 µM
same,TGI,MDA-MB-435,> 100 µM
same,TGI,MDA-N,> 100 µM
same,TGI,MOLT-4 leukemia,> 100 µM
same,TGI,NCI-H226 lung,> 100 µM
same,TGI,NCI-H23 lung,> 100 µM
same,TGI,NCI-H460 lung,> 100 µM
same,TGI,NCI-H522 lung,> 100 µM
same,TGI,NCI/ADR-RES ovarian,> 100 µM
same,TGI,OVCAR-3 ovarian,> 100 µM
same,TGI,OVCAR-4 ovarian,> 100 µM
same,TGI,OVCAR-5 ovarian,> 100 µM
same,TGI,OVCAR-8 ovarian,> 100 µM
same,TGI,PC-3 prostate,> 100 µM
same,TGI,RPMI-8226 leukemia,> 100 µM
same,TGI,RXF 393 renal,> 86 µM
same,TGI,SF-268 CNS,> 100 µM
same,TGI,SF-295 CNS,> 100 µM
same,TGI,SF-539 CNS,> 100 µM
same,TGI,SK-MEL-2 melanoma,> 100 µM
same,TGI,SK-MEL-28 melanoma,> 100 µM
same,TGI,SK-MEL-5 melanoma,> 100 µM
same,TGI,SK-OV-3 ovarian,> 100 µM
same,TGI,SN12C renal,> 100 µM
same,TGI,SNB-19 CNS,> 85.2 µM
same,TGI,SNB-75 CNS,> 100 µM
same,TGI,SR leukemia,> 100 µM
same,TGI,SW-620 colon,> 100 µM
same,TGI,T-47D breast,> 100 µM
same,TGI,TK-10 renal,> 100 µM
same,TGI,U251 CNS,> 100 µM
same,TGI,UACC-257 melanoma,> 100 µM
same,TGI,UACC-62 melanoma,> 100 µM
same,TGI,UO-31 renal,> 100 µM
